The record followed here is patent US12622909B2, “Allosteric EGFR inhibitors and methods of use thereof” (Dana-Farber Cancer Institute, Inc., priority 2019, dated 2026).

pIC50: −log10 of the molar value. Like-named read-outs stand apart in the source and are kept apart here.

For experiment [1], the target named is EGFR L858R/T790M mutant Ba/F3 cells (Homo sapiens, UniProt P00533, T790M/L858R, cells depend on it). Put plainly: Ba/F3 cell proliferation (Cell Titer Glo). The experiment is classed as cell-based, murine. The settings on record: 72 hours. The text has this:
All cell lines were maintained in RPMI 1640 (Cellgro; Mediatech Inc., Herndon, CA) supplemented with 10% FBS, 100 units/mL penicillin, 100 units/mL streptomycin. The EGFR I941R mutation was introduced via site directed mutagenesis using the Quick Change Site-Directed Mutagenesis kit (Stratagene; La Jolla, CA) according to the manufacturer's instructions. All constructs were confirmed by DNA sequencing. The constructs were shuttled into the retroviral vector JP1540 using the Cre-recombination system (Agilent Technologies, Santa Clara, CA). Ba/F3 cells were then infected with retrovirus per standard protocols, as described previously (Zhou, et al, Nature 2009). Stable clones were obtained by selection in puromycin (2 μg/ml).
Growth and inhibition of growth was assessed by the Cell Titer Glo assay (Promega, Madison, WI) and was performed according to the manufacturer's instructions. The Cell Titer Glo assay is a luminescence-based method used to determine the number of viable cells based on quantitation of the ATP present, which is directly proportional to the amount of metabolically active cells present. […] All experimental points were set up in triplicates in 384-well plates and all experiments were repeated at least three times. […] The curves were fitted using a non-linear regression model with a sigmoidal dose response.

The target of experiment [2] is EGFR L858R (Homo sapiens, UniProt P00533, L858R). Put plainly: HTRF-based EGFR biochemical assay (L858R). The conditions noted are these: 100 μM ATP, enzyme 0.1 nM. The protocol:
(§1) EGFR biochemical activity measurements were carried out using the homogeneous time-resolved fluorescence (HTRF) assay (Cisbio). Inhibitors and DMSO normalizations were first dispensed to empty black low-volume 384-well plates (Corning) with D300 digital liquid dispenser (HP). All reactions were carried out at room temperature and solutions were added to plates with a Multidrop Combi Reagent Dispenser (ThermoFisher). The reaction mixture (10 μL final volume) contained 1 μM tyrosine kinase peptide-biotin substrate and mutant EGFR in a reaction buffer (50 mM HEPES pH 7.0, 5 mM MgCl2, 1 mM MnCl2, 0.01% BSA, 2 mM TCEP, 0.1 mM NaVO4). […] Enzyme reaction solution (2× concentrations, 5 μL) was added to 384-well plates containing compounds and incubated for 30 mins. Enzyme reactions were initiated with the addition of 5 μL of ATP to a final concentration of 100 μM and reacted for 20 mins. Reactions were quenched with the addition of 10 μL of phospho-tyrosine antibody-Europium(III) cryptate (1-to-180 volume ratio) and Streptavidin-XL665 (46.7 nM) in EDTA-containing detection buffer, then incubated at room temperature for 1 hour, and read with a PHERAstar plate reader (excitation=337 nm, emission=620 nm and 665 nm).

The target in experiment [3] is EGFR L858R/T790M (Homo sapiens, UniProt P00533, L858R/T790M). Briefly: HTRF-based EGFR biochemical assay (L858R/T790M). The settings on record: 100 μM ATP, enzyme 0.02 nM. The protocol: as §1, with “mins.” for “mins. Reactions were quenched with the addition of 10 μL of phospho-tyrosine antibody-Europium(III) cryptate (1-to-180 volume ratio) and Streptavidin-XL665 (46.7 nM) in EDTA-containing detection buffer, then incubated at room temperature for 1 hour, and read with a PHERAstar plate reader (excitation=337 nm, emission=620 nm and 665 nm).”
Chain of EGFR L858R/T790M (P00533 25-1210 T790M/L858R): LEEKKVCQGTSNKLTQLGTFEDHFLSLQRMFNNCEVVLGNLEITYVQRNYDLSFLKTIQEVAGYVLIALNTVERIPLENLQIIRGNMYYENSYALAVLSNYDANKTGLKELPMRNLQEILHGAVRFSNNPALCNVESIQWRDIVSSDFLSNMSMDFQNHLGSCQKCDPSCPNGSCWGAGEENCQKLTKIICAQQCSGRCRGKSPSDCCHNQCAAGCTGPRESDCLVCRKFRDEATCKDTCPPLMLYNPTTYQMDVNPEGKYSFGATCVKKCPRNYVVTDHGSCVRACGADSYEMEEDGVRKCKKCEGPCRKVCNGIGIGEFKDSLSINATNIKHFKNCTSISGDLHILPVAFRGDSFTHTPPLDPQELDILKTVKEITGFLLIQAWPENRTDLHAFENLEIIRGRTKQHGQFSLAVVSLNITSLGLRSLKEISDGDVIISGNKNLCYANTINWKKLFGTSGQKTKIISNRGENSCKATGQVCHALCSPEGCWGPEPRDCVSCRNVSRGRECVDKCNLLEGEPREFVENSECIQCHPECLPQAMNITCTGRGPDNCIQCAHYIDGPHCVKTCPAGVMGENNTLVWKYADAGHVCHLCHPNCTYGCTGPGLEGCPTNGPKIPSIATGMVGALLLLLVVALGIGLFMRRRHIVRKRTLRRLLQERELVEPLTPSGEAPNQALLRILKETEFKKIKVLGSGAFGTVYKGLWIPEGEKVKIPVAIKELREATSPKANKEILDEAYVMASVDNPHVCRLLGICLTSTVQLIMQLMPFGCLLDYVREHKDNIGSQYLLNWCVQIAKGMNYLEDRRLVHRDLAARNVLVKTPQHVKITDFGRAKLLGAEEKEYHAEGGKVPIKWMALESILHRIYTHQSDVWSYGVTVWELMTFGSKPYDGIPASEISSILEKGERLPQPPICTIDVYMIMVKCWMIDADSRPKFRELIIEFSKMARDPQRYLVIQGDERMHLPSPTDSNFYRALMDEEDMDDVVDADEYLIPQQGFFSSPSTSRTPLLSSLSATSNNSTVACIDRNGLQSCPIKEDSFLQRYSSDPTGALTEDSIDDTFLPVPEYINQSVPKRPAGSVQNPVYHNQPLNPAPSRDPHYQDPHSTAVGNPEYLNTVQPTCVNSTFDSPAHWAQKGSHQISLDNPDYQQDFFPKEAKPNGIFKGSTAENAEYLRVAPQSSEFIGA

Setting [4] is: in combination with 1 μg/ml cetuximab, read-out: Cell IC50 BaF3 L858R/T790M compound + cetuximab.
Setting [5] is: single agent, read-out: Cell IC50 EGFR BaF3 L858R/T790M.

Chain of EGFR L858R/T790M mutant Ba/F3 cells (P00533 whole entry T790M/L858R): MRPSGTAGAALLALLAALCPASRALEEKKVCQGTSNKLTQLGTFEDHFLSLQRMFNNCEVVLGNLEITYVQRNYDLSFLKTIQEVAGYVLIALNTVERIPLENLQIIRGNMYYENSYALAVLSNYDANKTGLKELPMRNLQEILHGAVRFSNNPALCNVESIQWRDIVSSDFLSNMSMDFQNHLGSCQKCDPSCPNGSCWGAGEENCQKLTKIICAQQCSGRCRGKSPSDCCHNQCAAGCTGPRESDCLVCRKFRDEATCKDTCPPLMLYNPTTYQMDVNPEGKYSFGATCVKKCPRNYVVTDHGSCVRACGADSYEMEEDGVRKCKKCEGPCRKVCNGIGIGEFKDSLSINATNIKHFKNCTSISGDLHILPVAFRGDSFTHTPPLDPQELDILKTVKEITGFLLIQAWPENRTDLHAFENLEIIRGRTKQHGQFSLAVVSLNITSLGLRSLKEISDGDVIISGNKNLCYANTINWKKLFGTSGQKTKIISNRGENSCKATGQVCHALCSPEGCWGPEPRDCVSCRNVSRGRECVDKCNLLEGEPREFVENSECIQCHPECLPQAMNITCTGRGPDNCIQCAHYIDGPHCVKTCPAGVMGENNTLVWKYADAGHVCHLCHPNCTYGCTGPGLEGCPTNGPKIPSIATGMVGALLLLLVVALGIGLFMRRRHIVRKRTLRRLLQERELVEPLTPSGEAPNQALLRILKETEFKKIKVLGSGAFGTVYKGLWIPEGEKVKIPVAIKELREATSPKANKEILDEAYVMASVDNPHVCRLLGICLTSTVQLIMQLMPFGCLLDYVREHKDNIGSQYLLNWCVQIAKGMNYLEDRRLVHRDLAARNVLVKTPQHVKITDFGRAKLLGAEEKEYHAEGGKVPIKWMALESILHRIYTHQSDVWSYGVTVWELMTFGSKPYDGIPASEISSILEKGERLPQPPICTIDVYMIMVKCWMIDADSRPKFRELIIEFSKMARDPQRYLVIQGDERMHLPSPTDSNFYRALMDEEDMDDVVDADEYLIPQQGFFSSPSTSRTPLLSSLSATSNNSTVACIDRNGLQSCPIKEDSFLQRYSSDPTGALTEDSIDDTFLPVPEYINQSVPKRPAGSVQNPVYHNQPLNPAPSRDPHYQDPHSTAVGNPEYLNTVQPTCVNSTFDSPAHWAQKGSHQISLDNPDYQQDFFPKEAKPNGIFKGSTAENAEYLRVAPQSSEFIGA
Chain of EGFR L858R (P00533 25-1210 L858R): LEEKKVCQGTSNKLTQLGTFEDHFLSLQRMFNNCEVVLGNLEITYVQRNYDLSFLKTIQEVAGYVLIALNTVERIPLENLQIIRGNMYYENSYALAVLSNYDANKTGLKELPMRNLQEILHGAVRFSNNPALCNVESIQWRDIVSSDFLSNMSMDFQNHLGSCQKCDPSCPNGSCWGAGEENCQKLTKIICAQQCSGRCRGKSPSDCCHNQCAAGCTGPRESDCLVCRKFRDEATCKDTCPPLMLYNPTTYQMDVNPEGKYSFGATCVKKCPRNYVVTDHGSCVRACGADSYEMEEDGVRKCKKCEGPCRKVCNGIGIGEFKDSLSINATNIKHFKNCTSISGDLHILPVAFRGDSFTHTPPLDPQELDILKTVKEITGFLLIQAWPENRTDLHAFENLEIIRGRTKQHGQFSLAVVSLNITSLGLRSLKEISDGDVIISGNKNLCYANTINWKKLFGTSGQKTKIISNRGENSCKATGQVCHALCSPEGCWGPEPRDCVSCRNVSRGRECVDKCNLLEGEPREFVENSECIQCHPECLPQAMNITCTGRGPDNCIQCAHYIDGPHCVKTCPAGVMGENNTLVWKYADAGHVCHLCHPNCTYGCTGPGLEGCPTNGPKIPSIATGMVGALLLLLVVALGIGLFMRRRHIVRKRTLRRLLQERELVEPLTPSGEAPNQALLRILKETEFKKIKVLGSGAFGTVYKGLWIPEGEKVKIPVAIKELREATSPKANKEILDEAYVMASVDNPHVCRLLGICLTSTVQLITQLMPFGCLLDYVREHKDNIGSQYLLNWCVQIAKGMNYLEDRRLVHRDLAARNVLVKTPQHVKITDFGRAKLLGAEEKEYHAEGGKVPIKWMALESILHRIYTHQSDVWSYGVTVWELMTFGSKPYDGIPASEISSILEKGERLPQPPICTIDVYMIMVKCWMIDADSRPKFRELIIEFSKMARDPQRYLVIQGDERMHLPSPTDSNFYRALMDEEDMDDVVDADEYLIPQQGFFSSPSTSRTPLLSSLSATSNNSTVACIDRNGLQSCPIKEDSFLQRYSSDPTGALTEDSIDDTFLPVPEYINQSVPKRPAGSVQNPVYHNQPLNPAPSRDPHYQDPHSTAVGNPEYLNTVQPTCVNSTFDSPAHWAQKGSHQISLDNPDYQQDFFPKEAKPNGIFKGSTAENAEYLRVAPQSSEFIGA

Take `CN1CCN(c2ccc(-c3ccc4ccn(C(C(=O)Nc5nccs5)c5ccccc5)c(=O)c4c3)cc2)CC1` (centres unmarked) [Compound 019, 2-(7-(4-(4-Methylpiperazin-1-yl)-phenyl)-1-oxoisoquinolin-2(1H)-yl)-2-phenyl-N-(thiazol-2-yl)acetamide]: the results for the GI50 in experiment [1] (setting [4]) and in experiment [1] (setting [5]) were 44 nM and 1850 nM, respectively. Further, the negative logarithm of the IC50 (pIC50) in experiment [2] is 7.46; in experiment [3], 8.30.
The matching figures for `CN1CCC(c2ccc(-c3cc4ncn(C(C(=O)Nc5nccs5)c5ccccc5)c(=O)c4cc3F)cc2)CC1` (centres unmarked) [Compound 020, 2-(6-Fluoro-7-(4-(1-methylpiperidin-4-yl)phenyl)-4-oxoquinazolin-3(4H)-yl)-2-phenyl-N-(thiazol-2-yl)acetamide]: 780 nM, 1420 nM, 7.59 and 8.22.
As for `CN1CCN(c2ccc(-c3cc4ncn(C(C(=O)Nc5nccs5)c5ccccc5)c(=O)c4cc3F)cc2)CC1` (centres unmarked) [Compound 021, 2-(6-Fluoro-7-(4-(4-methylpiperazin-1-yl)phenyl)-4-oxoquinazolin-3(4H)-yl)-2-phenyl-N-(thiazol-2-yl)acetamide], the GI50 in experiment [1] (setting [4]) was determined as 970 nM; in experiment [1] (setting [5]) it was 2900 nM. Besides, the pIC50 in experiment [2] was 6.99; in experiment [3], 7.80.
With `CN1CCC(c2ccc(-c3ccc4c(=O)n(C(C(=O)Nc5nccs5)c5ccccc5)cc(F)c4c3)cc2)CC1` (centres unmarked) [Compound 022, 2-(4-Fluoro-6-(4-(1-methylpiperidin-4-yl)phenyl)-1-oxoisoquinolin-2(1H)-yl)-2-phenyl-N-(thiazol-2-yl)acetamide], the results for the GI50 in experiment [1] (setting [4]) and in experiment [1] (setting [5]) were 20 nM and 1260 nM, respectively. The negative logarithm of the IC50 (pIC50) in experiment [2] is 8.70; in experiment [3] it was 9.22.
The like results for `CN1CCN(c2ccc(-c3ccc4c(=O)n(C(C(=O)Nc5nccs5)c5ccccc5)cc(F)c4c3)cc2)CC1` (centres unmarked) [Compound 023, 2-(4-Fluoro-6-(4-(4-methylpiperazin-1-yl)phenyl)-1-oxoisoquinolin-2(1H)-yl)-2-phenyl-N-(thiazol-2-yl)-acetamide] were, in that order, 110 nM, 2410 nM, 8.15 and 8.52.
Take `CN1CCC(c2ccc(-c3ccc4ccn(C(C(=O)Nc5nccs5)c5cccc(F)c5)c(=O)c4c3)cc2)CC1` (centres unmarked) [Compound 024, 2-(3-Fluorophenyl)-2-(7-(4-(1-methylpiperidin-4-yl)phenyl)-1-oxoisoquinolin-2(1H)-yl)-N-(thiazol-2-yl)-acetamide]: the figures for the GI50 in experiment [1] (setting [4]) and in experiment [1] (setting [5]) were 90 nM and 1770 nM, respectively. In addition, the values for the pIC50 in experiment [2] and in experiment [3] were 8.15 and 9.00, respectively.
The like results for `CN1CCC(c2ccc(-c3ccc4c(=O)n(C(C(=O)Nc5nccs5)c5cccc(F)c5)ccc4c3)cc2)CC1` (centres unmarked) [Compound 025, 2-(3-Fluorophenyl)-2-(6-(4-(1-methyl-piperidin-4-yl)phenyl)-1-oxo-isoquinolin-2(1H)-yl)-N-(thiazol-2-yl)-acetamide] were, in that order, 20 nM, 900 nM, 8.30 and 8.52.
Turning to `CN1CCC(c2ccc(-c3ccc4c(=O)n(C(C(=O)Nc5nccs5)c5ccccc5)ncc4c3)cc2)CC1` (centres unmarked) [Compound 026, 2-(6-(4-(1-Methylpiperidin-4-yl)-phenyl)-1-oxophthalazin-2(1H)-yl)-2-phenyl-N-(thiazol-2-yl)acetamide], the GI50 stood at 560 nM in experiment [1] (setting [4]) and 1220 nM in experiment [1] (setting [5]). The pIC50 in experiment [2] was 7.17; in experiment [3], 8.00.
The like results for `CN1CCN(c2ccc(-c3ccc4c(=O)n(C(C(=O)Nc5nccs5)c5ccccc5)ncc4c3)cc2)CC1` (centres unmarked) [Compound 027, 2-(6-(4-(4-Methylpiperazin-1-yl)-phenyl)-1-oxophthalazin-2(1H)-yl)-2-phenyl-N-(thiazol-2-yl)acetamide] were, in that order, 1700 nM, 3460 nM, 6.68 and 7.74.
Take `CN1CCC(c2ccc(-c3ccc4c(=O)n(C(C(=O)Nc5nccs5)c5cccc(F)c5)cnc4c3)cc2)CC1` (centres unmarked) [Compound 028, 2-(3-Fluorophenyl)-2-(7-(4-(1-methyl-piperidin-4-yl)phenyl)-4-oxo-quinazolin-3(4H)-yl)-N-(thiazol-2-yl)-acetamide]: the GI50 was 88 nM in experiment [1] (setting [4]) and 1580 nM in experiment [1] (setting [5]). Besides, the values for the pIC50 in experiment [2] and in experiment [3] were 7.68 and 8.15, respectively.
The like results for `CN1CCN(c2ccc(-c3ccc4c(=O)n(C(C(=O)Nc5nccs5)c5cccc(F)c5)cnc4c3)cc2)CC1` (centres unmarked) [Compound 029, 2-(3-Fluorophenyl)-2-(7-(4-(4-methyl-piperazin-1-yl)phenyl)-4-oxo-quinazolin-3(4H)-yl)-N-(thiazol-2-yl)-acetamide] were, in that order, 560 nM, 3450 nM, 7.04 and 7.74.
Regarding `CN1CCC(c2ccc(-c3ccc4ncn(C(C(=O)Nc5nccs5)c5cccc(F)c5)c(=O)c4c3)cc2)CC1` (centres unmarked) [Compound 030, 2-(3-Fluorophenyl)-2-(6-(4-(1-methyl-piperidin-4-yl)phenyl)-4-oxo-quinazolin-3(4H)-yl)-N-(thiazol-2-yl)-acetamide], the GI50 turned out to be 4 nM in experiment [1] (setting [4]) and 800 nM in experiment [1] (setting [5]). The pIC50 is 8.15 in experiment [2] and 9.00 in experiment [3].
`CN1CCN(c2ccc(-c3ccc4ncn(C(C(=O)Nc5nccs5)c5cccc(F)c5)c(=O)c4c3)cc2)CC1` (centres unmarked) [Compound 031, 2-(3-Fluorophenyl)-2-(6-(4-(4-methyl-piperazin-1-yl)phenyl)-4-oxo-quinazolin-3(4H)-yl)-N-(thiazol-2-yl)-acetamide]: the GI50 turned out to be 10 nM in experiment [1] (setting [4]) and 1350 nM in experiment [1] (setting [5]). The pIC50 in experiment [2] was 8.70; in experiment [3], 9.70.
As for `CN1CCC(c2ccc(-c3ccc4ncn(C(C(=O)Nc5ccccn5)c5cccc(F)c5)c(=O)c4c3)cc2)CC1` (centres unmarked) [Compound 032, 2-(3-Fluorophenyl)-2-(6-(4-(1-methyl-piperidin-4-yl)phenyl)-4-oxo-quinazolin-3(4H)-yl)-N-(pyridin-2-yl)-acetamide], the GI50 was 21 nM in experiment [1] (setting [4]) and 1580 nM in experiment [1] (setting [5]). Further, the negative logarithm of the IC50 (pIC50) in experiment [2] is 8.40; in experiment [3], 9.40.
Regarding `CN1CCN(c2ccc(-c3ccc4ncn(C(C(=O)Nc5ccccn5)c5cccc(F)c5)c(=O)c4c3)cc2)CC1` (centres unmarked) [Compound 033, 2-(3-Fluorophenyl)-2-(6-(4-(4-methyl-piperazin-1-yl)phenyl)-4-oxo-quinazolin-3(4H)-yl)-N-(pyridin-2-yl)-acetamide], the GI50 in experiment [1] (setting [4]) worked out at 44 nM; in experiment [1] (setting [5]), 1550 nM. In addition, the figures for the negative-log IC50 (pIC50) in experiment [2] and in experiment [3] were 7.29 and 8.70, respectively.
The like results for `O=C(Nc1ccccn1)C(c1cccc(F)c1)n1cnc2ccc(Br)cc2c1=O` (centres unmarked) [Compound 034, 2-(6-Bromo-4-oxoquinazolin-3(4H)-yl)-2-(3-fluorophenyl)-N-(pyridin-2-yl)acetamide] were, in that order, 1800 nM, > 10000 nM, < 6.00 and 7.74.
In the case of `O=C(Nc1nccs1)C(c1ccccc1)n1cc(F)c2ccc(Br)cc2c1=O` (centres unmarked) [Compound 035, 2-(7-Bromo-4-fluoro-1-oxo-isoquinolin-2(1H)-yl)-2-phenyl-N-(thiazol-2-yl)acetamide], the GI50 in experiment [1] (setting [4]) was 350 nM; in experiment [1] (setting [5]), > 10000 nM. The negative-log IC50 (pIC50) was 7.00 in experiment [2] and 7.96 in experiment [3].
